For test [1], the system named is A673 Ewing's sarcoma cells. The test can be described thus: Soft agar colony formation in the presence of histone deacetylase inhibitor. The class given is cell-based. As to conditions: 1.5 uM, versus ethanol carrier, FIG. 6. On the procedure:
Cell Culture: Ewing's sarcoma cell lines were grown as described (Lessnick et al., 2002). Following retroviral infection, polyclonal cell populations were prepared by growth in the appropriate selective media. Soft agar assays were performed as described (Lessnick et al., 2002). Tet-A673 cells were generated by infection with pREV-TETOFF (Clontech) and selection with G418. A single clone was then infected with FLAG-EWS/FLI-pREV-TRE, and selected with hygromycin in the presence of 1 ug/ml doxycycline and G418 (Lessnick et al., 2002). Individual clones were tested for induction of FLAG-EWS/FLI as previously described (Lessnick et al., 2002).
To test the effect of a histone deacetylase inhibitor on NKX2.2 activity, A673 Ewing's sarcoma cells were seeded into soft agar in the presence of 1.5 uM tricostatin (TSA), or ethanol (the TSA carrier) (FIG. 6). […] Soft agar colony formation is one measure of oncogenic transformation. Thus, the histone deacetylase inhibitor TSA blocks oncogenic transformation of Ewing's sarcoma cells.

Another test has as its target casein kinase II (CKII) (Homo sapiens, UniProt P68400). As to conditions: 5 μg/ml; cited from earlier work.

Chain of casein kinase II (CKII) (P68400 whole entry): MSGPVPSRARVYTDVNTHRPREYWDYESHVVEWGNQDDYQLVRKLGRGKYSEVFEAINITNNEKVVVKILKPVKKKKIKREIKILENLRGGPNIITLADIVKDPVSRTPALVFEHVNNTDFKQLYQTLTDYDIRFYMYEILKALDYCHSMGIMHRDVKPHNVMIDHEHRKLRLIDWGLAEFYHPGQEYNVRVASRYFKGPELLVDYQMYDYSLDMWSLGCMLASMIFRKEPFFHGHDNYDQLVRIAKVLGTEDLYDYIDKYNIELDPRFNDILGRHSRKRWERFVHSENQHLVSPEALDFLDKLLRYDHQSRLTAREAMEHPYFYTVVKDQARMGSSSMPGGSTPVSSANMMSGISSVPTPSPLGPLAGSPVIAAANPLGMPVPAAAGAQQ

As for `CC(/C=C/C(=O)NO)=C\[C@@H](C)C(=O)c1ccc(N(C)C)cc1` [TSA, Trichostatin A], the “soft agar colony formation (oncogenic transformation)” value in test [1] was “prevents Ewing's cells from forming colonies in soft agar”. For the molecule heparin, the “inhibition of the protein kinase activity of CKII” value on casein kinase II (CKII) is on record as > 90%.

The values are drawn from US7939253B2, “Methods and compositions for the diagnosis and treatment of ewing's sarcoma” (The University of Utah Research Foundation, priority 2007, dated 2011).
